From patent US6441049B2, “Method of treating neurodegenerative disorders via inhibition of amyloid beta peptide binding” (Ortho-McNeil Pharmaceutical, Inc., priority 1998, dated 2002)
Bridge positions count the residues as written; N and C are the ends.

Legend:
[1] = system: Aβ1-42 mediated inhibition of ACh release in rat cortical synaptosomes; assay: Amelioration of the Aβ1-42 mediated inhibition of ACh release in rat cortical synaptosomes; format: cell-based
[2] = target: 206-216 stretch of the human α7 nAChR (Homo sapiens, UniProt P36544); conditions: for % α7 nAChR 206-216 Binding: inhibitors 1 uM to 10 uM
Method: A 2-5 ug quantity of the 11 amino acid peptide comprised of the 206-216 stretch of the α7 nAChR (N-Ac, C(O)NH2) are added to a 96-well microtiter plate in 50 mL 10 mM HEPES, pH 7.4, or any buffer 50 ul. ^125I-β-amyloid1-40 (2000 Ci/mmol, 50 pM) was added to the wells in the presence and absence of inhibitors (1 uM to 10 uM) dissolved in 1 uL of 30% or 100% DMSO. Unbound ligands were removed and bound radioactivity was measured using a Microbeta liquid scintillation counter.

[3] = target: α7 subtype nAChR homomers (Homo sapiens, UniProt P36544); conditions: cited from earlier work
Aβ aggregation [4] = target: T1, Aβ aggregation (Homo sapiens, UniProt P05067); assay: Aβ aggregation assay on Synthaloid plates with labelled Aβ1-40; format: biochemical
T1 construct: 100 nM of fluo-Aβ1-40 in 100 μl of each well of the 96-well Synthaloid plate; purchased Amersham Pharmacia Biotech (125I-Aβ1-40); Advanced Bioconcepts (fluo-Aβ1-40)
Method: Aβs are known to form aggregates leading to the formation of amyloid plaques that are characteristic of Alzheimer's disease. […] We have validated this aggregation assay using both ^125I-Aβ1-40 and fluo-Aβ1-40 in a buffer containing 50 mM HEPES, pH 7.4, 0.1% BSA, 10% FCS and protease inhibitors. About 500 pM of ^125I-Aβ1-40 or 100 nM of fluo-Aβ1-40 in 100 μl of each well of the 96-well Synthaloid plate was allowed to incubate for 2.5 hr at room temperature in the presence or absence of inhibitors. At the end of the incubation, unbound protein in the wells was removed by three washes using the above buffer. The amount of bound protein which represented Aβ aggregation was measured either by scintillation counting or fluorescence measurements.

[5] = system: acetylcholine release from guinea pig hippocampus synaptosomes; assay: K+-evoked 3H-acetylcholine release from synaptosomes, effect of Aβs; format: cell-based
Method: Synaptosomes from guinea pig hippocampus were incubated with 0.1 μM ^3H-choline and then subjected to repeated washes to remove unincorporated ^3H-choline. The synaptosomes were treated with 65 mM K^+ for 30 seconds to elicit 3H-acetylcholine release.

[6] = target: T2, alpha-7 nAChRs (Homo sapiens); assay: 125I-Aβ1-40 binding to alpha-7 nAChRs (SK-N-MC cell membranes) on wheat germ agglutinin SPA beads; conditions: read-out: IC50, inhibition of 125I-Aβ1-40 binding to SK-N-MC cells
T2 construct: alpha-7 nAChR contained SK-N-MC cell membranes were immobilized; endogenous in cells; host or cells: SK-N-MC cell membranes
Method: Alpha-7 nAChRs were immobilized on wheat germ agglutinin coupled yittrium SPA beads and allowed to incubate with ^125I-Aβ1-40 in the presence of various concentrations of cold Aβ1-40 or Aβ1-42.

Aβ aggregation [7] = target: T1, Aβ aggregation; assay: Aβ aggregation assay on Synthaloid plates with labelled Aβ1-40; format: biochemical; remark: listed apart in the source

T1 sequence (P05067 672-711 limits assumed): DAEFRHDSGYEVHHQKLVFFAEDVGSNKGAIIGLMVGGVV
Sequence of α7 subtype nAChR homomers (P36544 23-502): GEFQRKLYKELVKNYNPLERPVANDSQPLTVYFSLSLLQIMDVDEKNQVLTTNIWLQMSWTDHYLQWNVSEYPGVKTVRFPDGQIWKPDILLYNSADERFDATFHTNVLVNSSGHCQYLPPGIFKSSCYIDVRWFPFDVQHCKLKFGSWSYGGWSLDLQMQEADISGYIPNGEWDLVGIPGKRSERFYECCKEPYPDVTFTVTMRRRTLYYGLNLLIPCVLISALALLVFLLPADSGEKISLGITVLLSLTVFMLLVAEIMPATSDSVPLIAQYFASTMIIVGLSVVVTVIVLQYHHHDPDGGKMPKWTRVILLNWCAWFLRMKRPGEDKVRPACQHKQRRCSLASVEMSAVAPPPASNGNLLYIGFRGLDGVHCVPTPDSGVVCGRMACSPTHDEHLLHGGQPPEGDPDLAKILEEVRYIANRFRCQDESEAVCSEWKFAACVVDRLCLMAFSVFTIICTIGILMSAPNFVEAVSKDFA
T2 sequence (P05067 672-711): as the sequence (P05067 672-711 limits assumed) above

| Compound | Amelioration of the Aβ1-42 Meditated Inhibition of ACh Release in Rat Cortical Synaptosomes (%) ([1]; at 1 μM) [% at 1 μM] | Amelioration of the Aβ1-42 Meditated Inhibition of ACh Release in Rat Cortical Synaptosomes (%) ([1]; at 10 μM) [% at 10 μM] | Inhibition of ligand binding to the 206-216 peptide [2] | other results |
| --- | --- | --- | --- | --- |
| Ac-SERFYECCKEP-NH2 [human alpha-7 nAChR206-216 oxidized (cyclic) CC: Ac-SERFYECC] (disulfide 7-8 (inferred)) [206-216 peptide with oxidized (cyclic) CC] | 82 | 84 | – | – |
| Ac-GIPGKRSERFYECCK-NH2 (cysteine pairing not given here) [human alpha-7 nAChR200-214, peptide stretch of the human alpha-7 nAChR] | 71 | 79 | – | – |
| SERFYECCKEP [206-216 peptide without Ac and NH2 end groups] | 10 | 22 | – | – |
| Ac-YECC-NH2 [human alpha-7 nAChR210-213] | 59 | 72 | – | – |
| Ac-SERFYECCKEP-NH2 [human alpha-7 nAChR206-216 Ac-SERFYECCKEP-NH2] (cysteine pairing not given here) | 77 | 81 | inhibited | – |
| α-bungarotoxin [reference compound] | – | – | inhibited | Kd [3]: 0.65 to 1.7 nM |
| 5,8-bis(Diphenylphosphinoyl)-3-methyl-1,2,3,4-tetrahydronaphthalene [Compound 59] | – | – | – | % Inh Agg. (conc μM) (Aβ aggregation [4]; 10 μM): <30 (10) %; % ACh Release at 10 μM [5]: 25%; % α7 nAChR 206-216 Binding [2]: 72% |
| CCCN(CCC)[C@@H]1Cc2c(O)ccc(O)c2C[C@H]1C (racemic) [Compound 9, 5,8-Dihydroxy-trans-2-di(N-propylamino)-3-methyl-1,2,3,4-tetrahydronaphthalene] | – | – | inhibited | IC50 [6]: 0.3 nM; inhibition at 10 µM (Aβ aggregation [4]; 10 μM, read-out: % Inh Agg. (conc μM)): > 90%; IC50 (Aβ aggregation [4]; Synthaloid plate, 2.5 hr, room temperature, read-out: IC50, inhibition of Aβ aggregation): 10 nM; Effect on acetylcholine release of Aβ after pretreatment with compound ([5]; 10 nM compound and 100 pM of either Aβ1-40 and Aβ1-42 prior to K+ stimulation): no effect on acetylcholine release; % ACh Release at 10 μM [5]: 94%; IC50 ([5]; Cavia porcellus, read-out: ACh Release (IC50)): 100 nM; % α7 nAChR 206-216 Binding [2]: 94%; Effect of prolonged incubation on amyloid aggregates (time course) (Aβ aggregation [7]): resulted in disaggregation |
